In the experiment the test system is CEM cells HIV-1 protection, formazan growth assay. Description: NCI AIDS Antiviral Assay. The settings on record: for IC50: measured here: growth of uninfected CEM cells. The method, boiled down: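 Soluble formazan readout of cell growth; CEM cells ± HIV-1; 5 drug concs. ≥50% protection → retest; ≥50% again = moderately active; reproducible 100% = confirmed active.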

Active and inactive are the calls of the source.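 The calls were made as follows: active = compounds giving half or more protection of infected cells from virus-caused growth loss, again on retest; inactive = the rest.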 Where a SMILES comes first, the peptide text is derived from it. Some results are limits rather than exact numbers.

The EC50 is the midpoint of the concentration-response curve. In general, IC50 refers to the concentration that inhibits the measured activity by half. Higher therefore signals weaker potency.

As to `O=C(O)c1ccccc1-c1c2cc([N+](=O)[O-])c(=O)c(Br)c-2oc2c(Br)c(O)c([N+](=O)[O-])cc12`, the EC50 is above 316 µM and the half-inhibitory concentration (IC50) is 8.13 µM.

As for `CCOc1ccc(/C=C2/C(=O)N(/C=C3/C(=O)Oc4ccccc4C3=O)C(=NC(C)=O)N2C)cc1`, the EC50 is above 200 µM and the IC50 was above 200 µM.

As for `Cc1ccc(NC(=O)CC(=O)n2nc(-c3ccccc3)c(N=Nc3ccccc3Cl)c2-c2ccccc2)cc1`, the EC50 is above 9.77 µM and the IC50 is above 9.77 µM.

Consider `CC(=O)/C(=C/n1c(=S)[nH]c2ccc([N+](=O)[O-])cc21)C(=O)Nc1ccc(Cl)cc1`, for which the EC50 is above 100 µM and the IC50 was above 100 µM.

As to `CCOC(=O)c1ccc(/C(C#N)=C/c2ccc(Cl)cc2)cc1`, the EC50 was above 200 µM and the IC50 is above 200 µM.

Consider `Cc1ccc2nc(-c3ccc(-c4nc5ccc(C)cc5o4)c(O)c3)oc2c1`, for which the EC50 is above 200 µM and the IC50 is above 200 µM.

As for `O=C(CN1CCCC1=O)CS(=O)(=O)c1ccccc1`, the EC50 was above 891 µM and the IC50 is above 891 µM.

In the case of `O=C(O)CN1C(=O)c2cccc3cccc(c23)C1=O`, the EC50 is above 200 µM and the IC50 is above 200 µM.

`COC(O)C(=O)c1c2c(cc3c1CCC3)CCC2` (stereo not given): the EC50 was above 200 µM and the IC50 came out at 174 µM.

For the molecule `COc1cc(-c2ccc(NC(=O)SCCC(=O)O)cc2OC)ccc1NC(=O)SCCC(=O)O`, the result was inactive.

Regarding `Cc1ccc(S(=O)(=O)NC(=O)NCCc2ccccc2)cc1`, the EC50 was 7.08 µM and the IC50 worked out at 295 µM.

`CNC(=O)O/N=C1\N(C)CN(c2ccccc2)C12CCN(CCCC(=O)c1ccc(F)cc1)CC2`: the EC50 is above 200 µM and the IC50 came out at 105 µM.

Take `COc1cc(C2c3cc4c(cc3OC(NCCO)C2C)OCO4)cc(OC)c1OC` (stereo not given): the EC50 is above 20 µM and the IC50 came to 0.24 µM.

Regarding `C=C1SC(=Nc2ccc(Cl)cc2)N(c2nc(Cl)nc(Cl)n2)C12CCCCC2`, the EC50 is above 100 µM and the IC50 was above 100 µM.

Take `CC(C)OP(=O)(OC(C)C)c1nc(-c2ccccc2)n(-c2ccc([N+](=O)[O-])cc2)n1`: the EC50 was above 302 µM and the IC50 came out at 219 µM.

Consider `Cc1cccc(C(O)c2cccnc2)c1O` (stereo not given), for which the EC50 is above 200 µM and the IC50 was above 200 µM.

Turning to `CC(C)(C)OC(=O)CN1CCNCCN(CC(=O)OC(C)(C)C)CCNCC1`, the EC50 is above 200 µM and the half-inhibitory concentration (IC50) came out at 13.8 µM.

In the case of `COc1cc(CC(C)=O)cc(OC)c1`, the EC50 was above 200 µM and the IC50 came out at 95.5 µM.

As for `CCCCC1Sc2cc(OC)cc3nnn(c23)C1=O` (stereo not given), the EC50 is above 200 µM and the half-inhibitory concentration (IC50) was above 200 µM.

As to `Cc1cc2nc3nc(N)nc(NS(=O)(=O)c4cc(C)c(Cl)cc4S)n3c2cc1C`, the EC50 is 102 µM and the IC50 stood at 380 µM.

With `COc1ccc2c3c1OC1C(OC)(OC)CC4(C=C2)CN(C)CCC314` (stereo not given), the result was inactive.

With `COc1ccccc1-c1csc(CCC(N)C(=O)O)n1` (stereo not given), the outcome was inactive.

In the case of `C[N+](C)(C)CCC[N+](C)(C)CCN1C(=O)c2cccc3cccc(c23)C1=O`, the EC50 is above 200 µM and the IC50 was above 200 µM.

`CC(=O)OCC1OC(N2C(=O)[C@H](Oc3ccccc3)[C@@H]2c2ccccc2)C(OC(C)=O)C(OC(C)=O)C1OC(C)=O` (stereo not given in full): the EC50 was above 100 µM and the IC50 was above 100 µM.

Consider `NC(=O)CNC(=O)C1CC(O)CN1C(=O)OCc1ccccc1` (stereo not given) (HELM PEPTIDE1{[O=C(OCc1ccccc1)[*:2]].[O=C(C1CC(O)CN1[*:1])[*:2]].G.[am]}$$$$V2.0), for which the EC50 is above 200 µM and the IC50 is above 200 µM.

`Clc1ccc(-c2c(C3=NCCN3)nnn2-c2ccc(Cl)cc2)cc1`: the EC50 was above 138 µM and the IC50 worked out at 115 µM.

In the case of `CCc1ccc(Nc2cc(=O)n(C)c(SCc3ccccc3)n2)cc1`, the EC50 was above 200 µM and the IC50 is above 200 µM.

For the molecule `O=C1CCCC(=O)N1n1c(Cc2ccccc2)n[nH]c1=O`, the EC50 was above 200 µM and the IC50 is above 200 µM.

For `O=c1[nH]c2ccccc2nc1/C=C\NC(=S)Nc1cc(Cl)ccc1Cl`, the EC50 is above 200 µM and the IC50 stood at 112 µM.

For `O=C1N=CN=C2C=CC(Cl)=C(I)C12` (stereo not given), the EC50 is above 85.1 µM and the IC50 is above 85.1 µM.

Consider `COC(=O)C(=O)C(C(=O)C=C(C)C)C(=O)C(=O)Nc1cc(C(F)(F)F)ccc1Cl` (stereo not given), for which the EC50 was above 83.2 µM and the IC50 is above 83.2 µM.

As for `CCOC(=O)c1[nH]n(-c2ccccc2)c(=O)c1/C=N/C(=S)NNC(C)=O`, the result was inactive and the IC50 was found to be 138 µM.

Regarding `COc1ccc(C2S/C(=C\c3cccc(O)c3)C(=O)N2NC(=O)Cc2ccccc2)cc1` (stereo not given), the EC50 is above 112 µM and the IC50 is above 112 µM.

`O=c1c(=O)c2c3c(ccc12)OCO3`: the result was inactive.

Consider `C/C(=N\O)c1ccc(S(=O)(=O)c2ccc([N+](=O)[O-])cc2)cc1`, for which the EC50 was above 200 µM and the IC50 is above 200 µM.

Regarding `CCOC(=O)C(NC(=O)Nc1ccc(Cl)c(Cl)c1)C(F)(F)F` (stereo not given), the EC50 is above 200 µM and the IC50 was determined as 141 µM.

As for `CC1(C)OC2O[C@H](C3OC[C@H]4O[C@@H](n5ccc(=O)[nH]c5=O)C(O)[C@H]4N3O)[C@@H]3OC(C)(C)O[C@@H]3C2O1` (stereo not given in full), the EC50 was above 200 µM and the IC50 amounted to 105 µM.

On to `O=C(C(=C(I)I)c1ccccc1)c1ccccc1`, for which the EC50 is above 200 µM and the half-maximal inhibitory concentration (IC50) is 19.5 µM.

As for `CNC(=O)N(Cc1ccccc1)C[C@@H]1CCCN1C(C)=O`, the EC50 is above 200 µM and the IC50 is above 200 µM.

On to `Cc1ccc(C(=O)Nc2ccc(S(=O)(=O)O)c3cc(S(=O)(=O)O)cc(S(=O)(=O)O)c23)cc1NC(=O)c1cccc(NC(=O)Nc2cccc(C(=O)Nc3cc(C(=O)Nc4ccc(S(=O)(=O)O)c5cc(S(=O)(=O)O)cc(S(=O)(=O)O)c45)ccc3C)c2)c1`, for which the EC50 is 34.7 µM and the IC50 is 174 µM.

Consider `Cc1ccc2c(c1-c1ccccc1)C(=O)OC2`, for which the result was inactive.

Regarding `S=c1sc2c(s1)SCCCCSCCCCSc1sc(=S)sc1SCCCCSCCCCS2`, the EC50 was above 200 µM and the IC50 was above 200 µM.

Consider `O=C1C2ON3c4ccccc4C(=O)C3(c3ccccc3)C2C(=O)N1c1ccccc1` (stereo not given), for which the EC50 is above 18.2 µM and the IC50 was above 18.2 µM.

Consider `CC(C)(C)OC(=O)c1ccc(NCc2cc(O)ccc2O)cc1`, for which the EC50 is above 200 µM and the IC50 was found to be 3.16 µM.

Take `O=C1CNN=C(Cn2nc(-c3ccccc3)c3ccccc3c2=O)N1`: the EC50 is above 6.03 µM and the IC50 was above 6.03 µM.

Take `CC(=O)Nc1nnc(SSc2nnc(NC(C)=O)s2)s1`: the 50% effective concentration (EC50) was 36.3 µM and the IC50 was 186 µM.

For the molecule `N#CCC(=O)N/N=C1\C(=O)N(c2ccc(Cl)cc2)C(=O)C(=O)C1c1nc2ccccc2o1` (stereo not given), the outcome was inactive.

Regarding `CNCc1c2c(O)c3c(O)c(C)c4c(c3c1O)C(=O)C(C)(O/C=C/C(OC)C(C)C(OC(C)=O)C(C)C(O)C(C)C(O)C(C)/C=C/C=C(/C)C(=O)N2)O4` (stereo not given), the EC50 was above 200 µM and the IC50 came to 16.6 µM.

As to `CNCCCC1c2ccccc2C=Cc2ccccc21`, the EC50 is above 200 µM and the IC50 turned out to be 37.2 µM.

With `N#C/C(=C\c1ccc(O)c(O)c1)C(=O)N[C@@H]1CCC[C@@H](NC(=O)/C(C#N)=C/c2ccc(O)c(O)c2)C1`, the EC50 is above 200 µM and the IC50 amounted to 12.3 µM.

As to `CCCOc1cc2c(c3oc(=O)cc(CCC)c13)C(=O)[C@H](C)[C@@H](C)O2`, the EC50 was above 200 µM and the IC50 amounted to 5.5 µM.

On to `Cc1cc(C)c(C(=O)OC(c2ccccc2)C(c2ccccc2)N2CCOCC2)c(C)c1` (stereo not given), for which the result was inactive.

`CCC/[N+]([O-])=C/c1ccc([N+](=O)[O-])o1`: the outcome was inactive.

In the case of `CCOC(=O)N1CCC(=O)C[C@@H]1C/C=C/P1(=O)O[C@H](c2ccccc2)C(C)N1C(C)C` (stereo not given in full), the outcome was inactive.

Turning to `Brc1cccc(-c2nc3ccccc3[nH]2)c1`, the EC50 was above 132 µM and the IC50 came to 87.1 µM.

As to `COc1cc2c(c3c1C(=O)[C@H](C)[C@@H](C)O3)C=CC(C)(C)O2`, the EC50 is above 200 µM and the IC50 was 50.1 µM.

On to `O=C1CCC(=O)c2sccc2N1`, for which the EC50 is above 1380 µM and the IC50 was above 1380 µM.

Regarding `CCC12C=CCN3CCC4(C(=C(C(=O)OC)C1)Nc1ccccc14)[C@H]32` (stereo not given in full), the EC50 was above 120 µM and the IC50 was found to be 5.25 µM.

On to `O=S(=O)(CC(Cl)c1ccccc1)c1nc2ccccc2s1` (stereo not given), for which the EC50 is above 200 µM and the IC50 came out at 2.14 µM.

For the molecule `CN(C)c1nc(Cl)c2c(-c3ccccc3)c(-c3ccccc3)oc2n1`, the result was inactive.

For the molecule `COc1ccccc1/C=C/C(=O)O`, the EC50 was above 525 µM and the IC50 is above 525 µM.

Take `O=C1/C(=C/c2cccs2)NC(=S)N1CN1CCCCC1`: the EC50 was above 200 µM and the IC50 came out at 33.1 µM.

Turning to `N#CC1(C=O)c2ccccc2C=CN1C(=O)c1ccccc1` (stereo not given), the EC50 was above 91.2 µM and the IC50 was above 91.2 µM.

`O=c1[nH]nc(-c2ccccc2)n1/N=C/c1ccc([N+](=O)[O-])cc1`: the EC50 is above 200 µM and the IC50 is above 200 µM.

In the case of `CCCCCCC1OC(C(=O)OCCCC)C(C(=O)OCCCC)O1` (stereo not given), the EC50 was above 200 µM and the IC50 is above 200 µM.

For `CO/N=C(\C(=O)Nc1cncs1)c1csc(NC(c2ccccc2)(c2ccccc2)c2ccccc2)n1`, the EC50 was above 200 µM and the 50% inhibitory concentration (IC50) is above 200 µM.

Take `CCOC(=O)c1nc2ccc(C(F)(F)F)cc2nc1NCc1ccc(Cl)c(Cl)c1`: the EC50 is above 100 µM and the IC50 turned out to be 17 µM.

Take `N#Cc1c(-c2cccc3ccccc23)c2c([nH]c1=S)CCCC2`: the EC50 is above 79.4 µM and the half-inhibitory concentration (IC50) came to 34.7 µM.

For `CCc1n[nH]c(=O)n1O`, the EC50 was above 200 µM and the IC50 was above 200 µM.

For the molecule `O=c1c(-c2ccccc2)coc2cc(O)ccc12`, the EC50 was above 200 µM and the IC50 was 52.5 µM.

(Values after PubChem BioAssay AID179 (DTP/NCI, 2004).)
